Among the data in patent US8183380B2, “2-aminoquinolines” (Hoffmann-La Roche Inc., priority 2008, dated 2012) are Ki values, retold here.

In general, Ki refers to a dissociation constant, usually derived from enzyme kinetics or from competition with a known ligand.

Each structure is given as a SMILES string.

T1 sequence (P47898 whole entry): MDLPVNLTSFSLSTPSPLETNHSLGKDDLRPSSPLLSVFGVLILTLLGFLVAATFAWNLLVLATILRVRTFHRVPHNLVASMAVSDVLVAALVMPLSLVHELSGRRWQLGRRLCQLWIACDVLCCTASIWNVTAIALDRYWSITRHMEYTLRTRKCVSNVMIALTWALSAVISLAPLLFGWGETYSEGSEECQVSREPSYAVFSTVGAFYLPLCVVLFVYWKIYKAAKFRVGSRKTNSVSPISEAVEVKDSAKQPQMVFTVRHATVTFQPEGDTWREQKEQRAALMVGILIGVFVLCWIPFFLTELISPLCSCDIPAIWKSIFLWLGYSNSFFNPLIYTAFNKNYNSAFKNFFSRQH

The test has as its target T1, recombinant human 5-HT5A receptor (Homo sapiens, UniProt P47898).
T1 construct: expressed in transfected cells; host or cells: HEK-EBNA (Human Embryonic Kidney-EBNA) cells, transient cDNA expression; membranes
Kind of test: [3H]LSD radioligand binding assay. The settings on record: [3H]LSD (approximately 1 nM); membranes from transiently expressed 5-HT5A receptors in HEK-EBNA cells; Ki from IC50 by Cheng-Prussoff equation. The method, then: A [^3H]LSD radioligand binding assay was used to determine the affinity of the compounds for the recombinant human 5-HT5A receptor, in membranes from transiently (cDNA) expressed 5-HT5A receptors in Human Embryonic Kidney-EBNA (HEK-EBNA) cells. Assay buffer consisted of Tris (50 mM) buffer containing 1 mM EGTA, 10 mM MgCl2 (pH 7.4) and 10 μM pargyline. The binding assay was carried out in 96-well-plates in the presence of [^3H]LSD (approximately 1 nM), approximately 2 μg/well of membrane protein, and 0.5 mg of Ysi-poly-1-lysine SPA beads in a final volume of 200 μl of buffer. Non-specific binding was defined using methiothepin 2 μM. Compounds were tested at 10 concentrations. All assays were conducted in duplicate and repeated at least two times. Assay plates were incubated for 120 min at room temperature before centrifugation. Bound ligand was determined using a Packard Topcount scintillation counter. IC50 values were calculated using a non-linear curve fitting program and Ki values calculated using the Cheng-Prussoff equation.
In the case of `COc1cccc2c1C(Nc1ccc3cc(NC(=O)NC(C)C)ccc3n1)CC2` (racemic) [Example 12, rac-1-Isopropyl-3-[2-(7-methoxy-indan-1-ylamino)-quinolin-6-yl]-urea], the Ki turned out to be 1.5 nM. With `COc1cccc2c1C(Nc1ccc3cc(NC(=O)NC(C)C)ccc3n1)CCC2` (racemic) [Example 15, rac-1-Isopropyl-3-[2-(8-methoxy-1,2,3,4-tetrahydro-naphthalen-1-ylamino)-quinolin-6-yl]-urea] the figure was 7.7 nM. With `CN1CCC(NC(=O)Nc2ccc3nc(NC4COc5ccccc54)ccc3c2)CC1` (racemic) [Example 35, rac-1-[2-(2,3-Dihydro-benzofuran-3-ylamino)-quinolin-6-yl]-3-(1-methyl-piperidin-4-yl)-urea] the figure was 9.6 nM; with `COc1cccc2c1C(Nc1ccc3cc(NC(=O)NC4CCN(C)CC4)ccc3n1)CC2` (racemic) [Example 40, rac-1-[2-(7-Methoxy-indan-1-ylamino)-quinolin-6-yl]-3-(1-methyl-piperidin-4-yl)-urea], 2.2 nM.

For `COc1cccc2c1C(Nc1ccc3cc(NC(=O)NC4CCN(C(C)C)CC4)ccc3n1)CC2` (racemic) [Example 44, rac-1-(1-Isopropyl-piperidin-4-yl)-3-[2-(7-methoxy-indan-1-ylamino)-quinolin-6-yl]-urea], the Ki turned out to be 3 nM. In the case of `COCCN1CCC(NC(=O)Nc2ccc3nc(NC4CCc5cccc(OC)c54)ccc3c2)CC1` (racemic) [Example 45, rac-1-[1-(2-Methoxy-ethyl)-piperidin-4-yl]-3-[2-(7-methoxy-indan-1-ylamino)-quinolin-6-yl]-urea], the Ki stood at 3 nM. The result for `COc1cccc2c1C(Nc1ccc3cc(NC(=O)NC4CCN(CCF)CC4)ccc3n1)CC2` (racemic) [Example 46, rac-1-[1-(2-Fluoro-ethyl)-piperidin-4-yl]-3-[2-(7-methoxy-indan-1-ylamino)-quinolin-6-yl]-urea] reads 2.7 nM; that for `COc1cccc2c1C(Nc1ccc3cc(NC(=O)NC4CCN(CCC(F)(F)F)CC4)ccc3n1)CC2` (racemic) [Example 47, rac-1-[2-(7-Methoxy-indan-1-ylamino)-quinolin-6-yl]-3-[1-(3,3,3-trifluoro-propyl)-piperidin-4-yl]-urea], 3 nM; that for `COc1cccc2c1C(Nc1ccc3cc(NC(=O)NC4CC5CCCC(C4)N5C)ccc3n1)CC2` (racemic) [Example 50, rac-1-[2-(7-Methoxy-indan-1-ylamino)-quinolin-6-yl]-(9-methyl-9-aza-bicyclo[3.3.1]non-3-yl)-urea], 5.2 nM. In the case of `COc1cccc2c1C(Nc1ccc3cc(NC(=O)NC4CCN(CCSC)CC4)ccc3n1)CC2` (racemic) [Example 51, rac-1-[2-(7-Methoxy-indan-1-ylamino)-quinolin-6-yl]-3-[1-(2-methylsulfanyl-ethyl)-piperidin-4-yl]-urea], the inhibitory constant (Ki) was determined as 3.9 nM. The result for `COc1cccc2c1C(Nc1ccc3cc(NC(=O)NC4CCN(C(=O)CC(F)(F)F)CC4)ccc3n1)CC2` (racemic) [Example 52, rac-1-[2-(7-Methoxy-indan-1-ylamino)-quinolin-6-yl]-3-[1-(3,3,3-trifluoro-propionyl)-piperidin-4-yl]-urea] reads 7.5 nM; that for `COc1cccc2c1C(Nc1ccc3cc(NC(=O)NC4CCN(C5CC5)CC4)ccc3n1)CC2` (racemic) [Example 53, rac-1-(1-Cyclopropyl-piperidin-4-yl)-3-[2-(7-methoxy-indan-1-ylamino)-quinolin-6-yl]-urea], 3.1 nM; that for `COc1cccc2c1C(Nc1ccc3cc(NC(=O)NC4CCN(C5CC5)CC4)ccc3n1)CCC2` (racemic) [Example 55, rac-1-(1-Cyclopropyl-piperidin-4-yl)-3-[2-(8-methoxy-1,2,3,4-tetrahydro-naphthalen-1-ylamino)-quinolin-6-yl]-urea], 9.7 nM.

Turning to `COc1cccc2c1C(Nc1ccc3cc(NC(=O)NC4CCN(C)CC4)ccc3n1)CCC2` (racemic) [Example 57, rac-1-[2-(8-Methoxy-1,2,3,4-tetrahydro-naphthalen-1-ylamino)-quinolin-6-yl]-3-(1-methyl-piperidin-4-yl)-urea], the Ki is 5.8 nM. Consider `COCCN1CCC(NC(=O)Nc2ccc3nc(NC4CCCc5cccc(OC)c54)ccc3c2)CC1` (racemic) [Example 58, rac-1-[1-(2-Methoxy-ethyl)-piperidin-4-yl]-3-[2-(8-methoxy-1,2,3,4-tetrahydro-naphthalen-1-ylamino)-quinolin-6-yl]-urea], for which the Ki is 5.3 nM. With `COc1cccc2c1C(Nc1ccc3cc(NC(=O)NC4CCN(CCF)CC4)ccc3n1)CCC2` (racemic) [Example 59, rac-1-[1-(2-Fluoro-ethyl)-piperidin-4-yl]-3-[2-(8-methoxy-1,2,3,4-tetrahydro-naphthalen-1-ylamino)-quinolin-6-yl]-urea] the figure was 5.9 nM; with `COc1cccc2c1C(Nc1ccc3cc(NS(=O)(=O)N(C)C)ccc3n1)CC2` (racemic) [Example 68, rac-N′-{2-[(7-methoxy-2,3-dihydro-1H-inden-1-yl)amino]quinolin-6-yl}-N,N-dimethylsulfamide], 2.5 nM; with `COc1ccc(C)c2c1C(Nc1ccc3cc(NC(=O)NC(C)C)ccc3n1)CC2` (racemic) [Example 93, rac-1-Isopropyl-3-[2-(7-methoxy-4-methyl-indan-1-ylamino)-quinolin-6-yl]-urea], 8.7 nM.

For `CC(C)NC(=O)Nc1ccc2nc(NC3CCc4cc(F)ccc43)ccc2c1` (racemic) [Example 107, rac-1-[2-(5-Fluoro-indan-1-ylamino)-quinolin-6-yl]-3-isopropyl-urea], the inhibition constant (Ki) stood at 4.4 nM. As for `CC(C)N1CCC(NC(=O)Nc2ccc3nc(NC4CCc5cc(F)ccc54)ccc3c2)CC1` (racemic) [Example 115, rac-1-[2-(5-Fluoro-indan-1-ylamino)-quinolin-6-yl]-3-(1-isopropyl-piperidin-4-yl)-urea], the Ki was 4 nM. With `COc1cc(C)cc2c1C(Nc1ccc3cc(NC(=O)NC(C)C)ccc3n1)CC2` (racemic) [Example 130, rac-1-Isopropyl-3-[2-(7-methoxy-5-methyl-indan-1-ylamino)-quinolin-6-yl]-urea], the Ki stood at 3.4 nM. As for `COc1cc(C)cc2c1C(Nc1ccc3cc(NC(=O)NC4CCN(C)CC4)ccc3n1)CC2` (racemic) [Example 131, rac-1-[2-(7-Methoxy-5-methyl-indan-1-ylamino)-quinolin-6-yl]-3-(1-methyl-piperidin-4-yl)-urea], the Ki came to 2.9 nM. The result for `COc1cccc2c1C(Nc1ccc3cc(NC(=O)CN4CCN(C)CC4)ccc3n1)CC2` (racemic) [Example 139, rac-N-[2-(7-Methoxy-indan-1-ylamino)-quinolin-6-yl]-2-(4-methyl-piperazin-1-yl)-acetamide] reads 4.4 nM; that for `COc1cccc2c1C(Nc1ccc3cc(NC(=O)C4CC4)ccc3n1)CC2` (racemic) [Example 140, rac-Cyclopropanecarboxylic acid [2-(7-methoxy-indan-1-ylamino)-quinolin-6-yl]-amide], 2.2 nM. With `O=C(Nc1ccc2nc(NC3CCc4cc(F)ccc43)ccc2c1)C1CC1` (racemic) [Example 141, rac-Cyclopropanecarboxylic acid [2-(5-fluoro-indan-1-ylamino)-quinolin-6-yl]-amide] the figure was 8.6 nM. With `CC(C)NC(=O)Nc1ccc2nc(NC3CCc4cccc(F)c43)ccc2c1` (racemic) [Example 146, rac-1-[2-(7-Fluoro-indan-1-ylamino)-quinolin-6-yl]-3-isopropyl-urea] the figure was 6.1 nM. Consider `CC(C)N1CCC(NC(=O)Nc2ccc3nc(NC4CCc5ccc(F)cc54)ccc3c2)CC1` (racemic) [Example 155, rac-1-[2-(6-Fluoro-indan-1-ylamino)-quinolin-6-yl]-3-(1-isopropyl-piperidin-4-yl)-urea], for which the inhibition constant Ki was 6.3 nM. With `CC(C)N1CCC(NC(=O)Nc2ccc3nc(NC4CCc5cccc(F)c54)ccc3c2)CC1` (racemic) [Example 156, rac-1-[2-(7-Fluoro-indan-1-ylamino)-quinolin-6-yl]-3-(1-isopropyl-piperidin-4-yl)-urea] the figure was 3.8 nM; with `O=C(Nc1ccc2nc(NC3CCc4cccc(F)c43)ccc2c1)C1CC1` (racemic) [Example 162, rac-Cyclopropanecarboxylic acid [2-(7-fluoro-indan-1-ylamino)-quinolin-6-yl]-amide], 8.3 nM; with `COc1cccc2c1C(Nc1ccc3cc(N)ccc3n1)CC2` (racemic) [Example 172, rac-N^2-(7-Methoxy-indan-1-yl)-quinoline-2,6-diamine], 3.3 nM. Turning to `COc1cccc2c1C(Nc1ccc3cc(NC(=O)N(C)C4CCN(C(C)C)CC4)ccc3n1)CC2` (racemic) [Example 179, rac-1-(1-Isopropyl-piperidin-4-yl)-3-[2-(7-methoxy-indan-1-ylamino)-quinolin-6-yl]-1-methyl-urea], the Ki stood at 7.1 nM. For `COc1cccc2c1C(Nc1ccc3cc(NC(=O)NC4CCN(C(C)C)CC4)ccc3n1)CO2` (racemic) [Example 180, rac-1-(1-Isopropyl-piperidin-4-yl)-3-[2-(4-methoxy-2,3-dihydro-benzofuran-3-ylamino)-quinolin-6-yl]-urea], the Ki is 2.8 nM.
